Data: patent US4454330A, “Two-functional-group-containing terpenoids, processes for the preparation of the same, and anti-ulcer agents containing the same” (Eisai Co., Ltd., priority 1980, dated 1984)

tested on: cold-restaint stress ulcer; assay: Effect on cold-restraint stress ulcer (Levine' method, rats); format: in vivo, rats (SD family; conditions: SD rats, female, about 170 g, 8-10 weeks age
Method: (1) Effect on Cold-Restaint Stress Ulcer
The inhibition effect of the test compound on the cold-restaint stress ulcer was determined according to the Levine' method using rats (SD family, female, weight about 170 g, 8-10 weeks age). The test compounds are set forth below.

Row | Compound | Inhibition Ratio (%) on the occurrence of the cold restrictive stress ulcer [%]
1 | CC(=CCO)CCC=C(C)CCC=C(C)C(=O)O [Compound A, 12-Hydroxy-2,6,10-trimethyl-2,6,10-dodecatrienoic acid] | 74.6
2 | CC(=CCO)CCC=C(C)CCC=C(C)CCC=C(C)C(=O)O [Compound C, 16-Hydroxy-2,6,10,14-tetramethyl-2,6,10,14-hexadecatetraenoic acid] | 79.2
3 | CC(=CCO)CCC=C(C)CCC=C(C)CCC=C(C)CCC=C(C)C(=O)O [Compound D, 20-Hydroxy-2,6,10,14,18-pentamethyl-2,6,10,14,18-eicosapentaenoic acid] | 49.5
